In EP0092060A1, “Pharmaceutical products in sustained-release form, and their preparation process” (LABORATORI PROPHIN Industria Chimica Farmaceutica S.p.A., priority 1982, dated 1983):
Blank lines part the entries; values can stand above or below the compound they belong to.

How the values were obtained:
[1] = cited from earlier work
[2] = Pharmacokinetic parameters obtained in man, used to calculate the optimum hourly dose; details: human, in vivo, read-out: elimination constant (Kel) (converted)
[3] = Drug release (dissolution), USP XX paddle apparatus, distilled water at 37°C; assay type: physicochemical; details: for time to total release: drug simply pasted/mixed into the polymer support matrix (uncoated nuclei); for release kinetics / release rate: nuclei covered with the diffusion regulating film; for release rate: during the release period; for influence of the second film on the drug diffusion rate: nuclei with first and second films compared with first film only; for % drug released: distilled water at 37°C, average of 6 determinations
Description: The Tiapride release was monitored for the uncoated nuclei, the nuclei with the first film applied, and the finished nuclei also comprising the second film.
A USP XX paddle apparatus was used, the dissolving medium being distilled water at 37°C.
The obtained results given hereinafter are the average of 6 determinations.
The Diltiazem release rate was measured on noncoated nuclei, nuclei coated with the first film and the finalized form with the second film coating.
A USP XX paddle apparatus was used and the dissolving medium was distilled water at 37°C.

k el [2]: 3.42e-05 s⁻¹
time to total release [3]: totally released within two hours
release kinetics [3]: on the order of zero
release rate [3]: 10 to 15 mg/h
influence of the second film on the drug diffusion rate [3]: practically no effect
Structure (SMILES): COc1ccc([C@@H]2Sc3ccccc3N(CCN(C)C)C(=O)[C@@H]2OC(C)=O)cc1 [Diltiazem]
distribution volume (Vd) ([1]; humans, unit not given): 1065
half life ([1]; in man): 4 h

k el [2]: 4.81e-05 s⁻¹
time to total release [3]: totally released within two hours
release kinetics [3]: zero order
release rate [3]: 10 to 15 mg/h
% drug released ([3]; nuclei covered with the first and second films, 1 hour): 0%
% drug released ([3]; nuclei covered with the first and second films, 2 hours): 1%
% drug released ([3]; nuclei covered with the first and second films, 3 hours): 16%
% drug released ([3]; nuclei covered with the first and second films, 4.5 hours): 34%
% drug released ([3]; nuclei covered with the first and second films, 5.5 hours): 44%
% drug released ([3]; nuclei covered with the first and second films, 6.5 hours): 57%
% drug released ([3]; nuclei covered with the first and second films, 7.5 hours): 71%
% drug released ([3]; nuclei covered with the first and second films, 8.5 hours): 83%
% drug released ([3]; nuclei covered with the first film, 1 hour): 2%
% drug released ([3]; nuclei covered with the first film, 2 hours): 4%
% drug released ([3]; nuclei covered with the first film, 3 hours): 14%
% drug released ([3]; nuclei covered with the first film, 3.5 hours): 19.3%
% drug released ([3]; nuclei covered with the first film, 4.5 hours): 34%
% drug released ([3]; nuclei covered with the first film, 5 hours): 47%
% drug released ([3]; nuclei covered with the first film, 6 hours): 57%
% drug released ([3]; nuclei covered with the first film, 7 hours): 69%
% drug released ([3]; nuclei covered with the first film, 8 hours): 83%
influence of the second film on the drug diffusion rate [3]: practically no influence
% drug released ([3]; uncoated nuclei, 15 min): 37.8%
% drug released ([3]; uncoated nuclei, 30 min): 51.6%
% drug released ([3]; uncoated nuclei, 60 min): 71.1%
% drug released ([3]; uncoated nuclei, 90 min): 80.3%
% drug released ([3]; uncoated nuclei, 120 min): 86.0%
Structure (SMILES): CCN(CC)CCNC(=O)c1cc(S(C)(=O)=O)ccc1OC.Cl [Tiapride, N-diethylaminoethyl-2-methoxy-5-methylsulphonyl-benzamide hydrochloride]
hematic peak after administering 100 mg (Cp) ([1]; in man, 100 mg): 800 ng/mL
half life ([1]; in man): 4 h
therapeutic range ([1]; in man): 0.6 - 0.9 mg/l of plasma
